We go through 26 compounds from US20250368627A1, “PYRAZOLESULFONAMIDES AS ANTITUMOR AGENTS” (Peloton Therapeutics, Inc., a fully owned subsidiary of …, priority 2019, published 2025).

The conditions of data set [1]: cited from earlier work.
The subject of data set [2] is HCT116 human colorectal carcinoma cells. In words: CellTiter-Glo Luminescent Cell Viability Assay. As to conditions: HCT-116, 72 h, 3 days. The class given is cell-based. The gist of the method:
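CellTiter-Glo luminescence gave viability after 3 days of compound exposure in HCT116 cells grown in DMEM/10% FBS. Final concentrations ran from 5 to 0.0002 […] in 1:3 steps, each in triplicate, with IC50 derived from the curves.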
A general note: ATP-based viability assays read luminescence as a measure of living cells.

Data set [3] has as its target T1, DDB1DB/DCAF15 and RBM39 R1R2 complex (Homo sapiens, UniProt Q14498+Q66K64).
T1 construct: Amino acids 150 to 331 of RBM39 were cloned into pGEX4T3; GST (from vector pGEX4T3); TEV cleavage site (N); made in house; host or cells: DDB1DB/His-DCAF15: baculovirus/Sf9 co-expression; RBM39 R1R2: E. coli (pGEX4T3)
In words: DCAF15 RBM39 Complex Formation Assay (FRET). To be noted: FRET ratio Em 665/Em 615, incubated overnight at 4° C. The class given is binding. The gist of the method: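 Ternary complex formation read by TR-FRET (Em 665/615, excitation 340 nm) after overnight incubation at 4° C of 20 nM baculovirus DDB1DB/His-DCAF15 and 50 nM E. coli RBM39 RRM1-RRM2 FLAG fragment with 14-point, 3-fold compound dilutions from 1 μM; EC50 from 4-parameter fit.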

For data set [4], the system named is HCT116 colorectal carcinoma cells. In words: In vivo efficacy study, HCT116 xenograft. Set-up: species or system Athymic Nude mice. As to conditions: for Body Weight (g) Mean ± SEM / Tumor Volume (mm^3) Mean ± SEM / Tumor Weight (g) Mean ± SD: HCT116 xenograft mice; for body weight versus vehicle group / reduction of tumor volume and tumor weight: HCT116 mouse model, compound 3 100 mg/kg BID, compound 136 30 mg/kg BID, 12 days; for reduction of tumor volume and tumor weight: versus vehicle. The source says: Compound 3 were formulated with 10% absolute ethanol, 30% PEG400, 60% water containing 0.5% methyl cellulose and 0.5% Tween80®. 2×10^6 HCT116 colorectal carcinoma cells (ATCC® CCL-247) in PBS and Matrigel (1:1 in volume) were inoculated subcutaneously in the right flank of Athymic Nude mice at 6-7 weeks of age for tumor development. When the xenografts reached about 150 mm^3 in size, the tumor bearing mice were randomly grouped into six groups (n=6) and treated by oral gavage with vehicle (10% absolute ethanol, 30% PEG400, 60% water containing 0.5% methyl cellulose and 0.5% Tween80®, BID) or compound 3 at 100 mg/kg BID for 12 days. Tumor sizes were measured twice weekly in two dimensions using a caliper and the volume were expressed in mm^3 using the formula V=0.5×a×b^2 wherein a and b were the long and short diameters of the tumor, respectively. The efficacy study for compound 136 was carried out in the same manner as that of compound 3 except compound 136 was dosed at 30 mg/kg BID for 12 days.

[5] abbreviates: 30 mg/kg BID oral gavage for 12 days.
Where [6] appears, read: 100 mg/kg BID oral gavage for 12 days.

T1 sequence (Q66K64 whole entry, the tested form may be a part): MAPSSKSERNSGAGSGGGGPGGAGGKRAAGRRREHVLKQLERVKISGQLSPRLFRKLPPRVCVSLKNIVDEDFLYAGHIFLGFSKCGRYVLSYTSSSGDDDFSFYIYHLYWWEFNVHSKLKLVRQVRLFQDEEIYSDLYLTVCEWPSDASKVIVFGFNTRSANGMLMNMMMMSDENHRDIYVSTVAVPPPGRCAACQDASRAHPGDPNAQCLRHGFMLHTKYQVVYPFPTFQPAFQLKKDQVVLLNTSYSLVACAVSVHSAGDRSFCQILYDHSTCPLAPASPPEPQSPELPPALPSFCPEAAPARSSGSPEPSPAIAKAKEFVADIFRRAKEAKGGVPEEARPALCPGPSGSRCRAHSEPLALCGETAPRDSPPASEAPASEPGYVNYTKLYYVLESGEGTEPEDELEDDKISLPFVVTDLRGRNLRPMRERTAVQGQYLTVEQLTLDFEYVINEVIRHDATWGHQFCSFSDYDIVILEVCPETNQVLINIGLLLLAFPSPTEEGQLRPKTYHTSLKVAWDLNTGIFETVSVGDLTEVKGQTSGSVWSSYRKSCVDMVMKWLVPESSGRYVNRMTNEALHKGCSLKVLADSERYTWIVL
T1 sequence (Q14498 150-331): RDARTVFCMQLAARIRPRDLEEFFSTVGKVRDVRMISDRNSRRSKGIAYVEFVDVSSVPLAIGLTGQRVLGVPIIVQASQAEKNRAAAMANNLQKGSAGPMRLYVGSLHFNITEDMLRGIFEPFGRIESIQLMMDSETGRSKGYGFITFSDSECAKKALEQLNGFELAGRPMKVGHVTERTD
T1 sequence (Q16531 with tags, fused parts or gaps DEL396-708 partner): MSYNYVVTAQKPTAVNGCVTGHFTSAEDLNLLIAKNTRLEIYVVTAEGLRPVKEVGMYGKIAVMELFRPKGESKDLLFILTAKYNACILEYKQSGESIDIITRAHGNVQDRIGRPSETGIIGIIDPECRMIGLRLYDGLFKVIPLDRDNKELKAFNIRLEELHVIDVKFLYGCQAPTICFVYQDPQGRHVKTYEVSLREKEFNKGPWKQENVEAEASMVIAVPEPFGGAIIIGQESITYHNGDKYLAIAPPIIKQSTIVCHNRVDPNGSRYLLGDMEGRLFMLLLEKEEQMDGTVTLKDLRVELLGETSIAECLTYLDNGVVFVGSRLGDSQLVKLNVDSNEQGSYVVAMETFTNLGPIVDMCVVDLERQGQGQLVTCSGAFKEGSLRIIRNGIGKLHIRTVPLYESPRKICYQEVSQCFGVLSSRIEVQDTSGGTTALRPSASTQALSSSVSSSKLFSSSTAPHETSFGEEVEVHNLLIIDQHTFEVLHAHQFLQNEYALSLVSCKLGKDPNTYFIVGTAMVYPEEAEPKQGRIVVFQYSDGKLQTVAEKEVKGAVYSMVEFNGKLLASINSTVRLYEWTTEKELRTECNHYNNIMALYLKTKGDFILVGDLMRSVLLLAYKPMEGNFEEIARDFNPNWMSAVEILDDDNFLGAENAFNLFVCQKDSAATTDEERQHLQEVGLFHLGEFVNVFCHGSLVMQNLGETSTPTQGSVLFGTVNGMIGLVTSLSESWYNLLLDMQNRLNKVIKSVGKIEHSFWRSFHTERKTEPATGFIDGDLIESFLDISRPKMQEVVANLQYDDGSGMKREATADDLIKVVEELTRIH

Regarding `NS(=O)(=O)c1ccc(S(=O)(=O)Nc2cccc3c(Cl)c[nH]c23)cc1` [Indisulam, indisulam], the treatment-induced myelosuppressive effect result in data set [1] (clinical dosing, indisulam 700 mg/m^2 IV every 3 weeks, E7820 100 mg q.d. oral) is “treatment-induced myelosuppressive effect”. In addition, the oral bioavailability entry in data set [1] (in vivo, po) was “poor oral bioavailability”.

One may read the EC50 as the midpoint of the concentration-response curve. Usually IC50 stands for the concentration at which inhibition is half-maximal. Turning to `CC(C)(O)Cn1cc(S(=O)(=O)Nc2ccc(Cl)c3c(C#N)c[nH]c23)cn1` [Compound 136, N-(4-chloro-3-cyano-1H-indol-7-yl)-1-(2-hydroxy-2-methyl-propyl)pyrazole-4-sulfonamide], the EC50 in data set [2] is 250 to 1000 nM. Moreover, in data set [3], the IC50 is under 250 nM. For the same compound, in data set [4] (setting [5]), the “Body Weight (g) Mean ± SEM” value is on record as 21.4 ± 0.14 g, the “Tumor Volume (mm^3) Mean ± SEM” value came out at 175.7 ± 12.3 mm^3 and the “Tumor Weight (g) Mean ± SD” value is recorded as “.083 ± 0.06 g”. Further, in data set [4], the “body weight versus vehicle group” value is reported as “no significant difference”; the “reduction of tumor volume and tumor weight” value is “statistically significant reduction”.

For `Cc1ccc(NS(=O)(=O)c2cnn(C)c2)c2[nH]cc(C#N)c12` [Compound 3, N-(3-cyano-4-methyl-1H-indol-7-yl)-1-methyl-pyrazole-4-sulfonamide], the EC50 in data set [2] lay in the range of 250 to 1000 nM. For the same compound, the IC50 in data set [3] is under 250 nM. Also, in data set [4] (setting [6]), the “Body Weight (g) Mean ± SEM” value is 22.44 ± 0.16 g, the “Tumor Volume (mm^3) Mean ± SEM” value stood at 122.9 ± 33.9 mm^3 and the “Tumor Weight (g) Mean ± SD” value is reported as “.013 ± 0.005 g”. Besides, in data set [4], the “body weight versus vehicle group” value is listed as “no significant difference”; the “reduction of tumor volume and tumor weight” value is recorded as “statistically significant reduction”.

In the case of `Cc1ccc(NS(=O)(=O)c2cnn(C3CCNC3=O)c2)c2[nH]cc(C#N)c12` (centres unmarked) [Compound 146, N-(3-cyano-4-methyl-1H-indol-7-yl)-1-(2-oxopyrrolidin-3-yl)pyrazole-4-sulfonamide], the EC50 in data set [2] was over 1000 nM. Further, in data set [3], the IC50 was under 250 nM.

As to `N#Cc1c[nH]c2c(NS(=O)(=O)c3cnn(CF)c3)ccc(Cl)c12` [Compound 124, N-(4-chloro-3-cyano-1H-indol-7-yl)-1-(fluoromethyl)pyrazole-4-sulfonamide], the EC50 in data set [2] is under 250 nM. In addition, in data set [3], the half-maximal inhibitory concentration (IC50) was under 250 nM.

Take `Cn1cc(S(=O)(=O)Nc2cccc3c(Cl)c(F)[nH]c23)cn1` [Compound 129, N-(3-chloro-2-fluoro-1H-indol-7-yl)-1-methyl-pyrazole-4-sulfonamide]: in data set [2], the EC50 is over 1000 nM. For the same compound, the IC50 in data set [3] is under 250 nM.

In the case of `CCn1ncc(S(=O)(=O)Nc2ccc(Cl)c3c(C#N)c[nH]c23)c1N` [Compound 273, 5-amino-N-(4-chloro-3-cyano-1H-indol-7-yl)-1-ethyl-pyrazole-4-sulfonamide], in data set [2], the EC50 is under 250 nM. Also, in data set [3], the IC50 is under 250 nM.

For `Cc1ccc(NS(=O)(=O)c2cnn(C3CCC(F)(F)CC3)c2)c2[nH]cc(C#N)c12` [Compound 86, N-(3-cyano-4-methyl-1H-indol-7-yl)-1-(4,4-difluorocyclohexyl)pyrazole-4-sulfonamide], in data set [2], the EC50 fell in the range of 250 to 1000 nM. In addition, the IC50 in data set [3] is under 250 nM.

For the compound `Cn1ncc(S(=O)(=O)Nc2ccc(Cl)c3c(C#N)c[nH]c23)c1F` [Compound 122, N-(4-chloro-3-cyano-1H-indol-7-yl)-5-fluoro-1-methyl-pyrazole-4-sulfonamide], the EC50 in data set [2] is under 250 nM. In addition, the IC50 in data set [3] was under 250 nM.

With `Cc1ccc(NS(=O)(=O)c2cn(C)nc2F)c2[nH]cc(C#N)c12` [Compound 148, N-(3-cyano-4-methyl-1H-indol-7-yl)-3-fluoro-1-methyl-pyrazole-4-sulfonamide], in data set [2], the EC50 is 250 to 1000 nM. For the same compound, in data set [3], the IC50 is under 250 nM.

For the compound `CCn1cc(S(=O)(=O)Nc2ccc(Cl)c3c(C#N)c[nH]c23)cn1` [Compound 127, N-(4-chloro-3-cyano-1H-indol-7-yl)-1-ethyl-pyrazole-4-sulfonamide], in data set [2], the EC50 was in the range of 250 to 1000 nM. The concentration for half-maximal inhibition (IC50) in data set [3] is under 250 nM.

For the compound `COC(=O)C(C)(C)n1cc(S(=O)(=O)Nc2ccc(Cl)c3c(Cl)c[nH]c23)cn1` [Compound 168, methyl 2-[4-[3,4-dichloro-1H-indol-7-yl)sulfamoyl]pyrazol-1-yl]-2-methyl-propanoate], the 50% effective concentration (EC50) in data set [2] lay within 250 to 1000 nM. For the same compound, in data set [3], the 50% inhibitory concentration (IC50) was under 250 nM.

Consider `O=S(=O)(Nc1ccc(Cl)c2c(Cl)c[nH]c12)c1cn[nH]c1` [Compound 159, N-(3,4-dichloro-1H-indol-7-yl)-1H-pyrazole-4-sulfonamide], for which the EC50 in data set [2] is under 250 nM. Also, the IC50 in data set [3] is under 250 nM.

Turning to `Cc1ccc(NS(=O)(=O)c2cnn(C(F)F)c2)c2[nH]cc(C#N)c12` [Compound 11, N-(3-cyano-4-methyl-1H-indol-7-yl)-1-(difluoromethyl)pyrazole-4-sulfonamide], in data set [2], the EC50 was in the range of 250 to 1000 nM. For the same compound, the IC50 in data set [3] was under 250 nM.

As to `Cc1ccc(NS(=O)(=O)c2cnn(C3(CO)COC3)c2)c2[nH]cc(C#N)c12` [Compound 116, N-(3-cyano-4-methyl-1H-indol-7-yl)-1-[3-(hydroxymethyl)oxetan-3-yl]pyrazole-4-sulfonamide], the EC50 in data set [2] lay in the range of 250 to 1000 nM. Further, the concentration for half-maximal inhibition (IC50) in data set [3] is under 250 nM.

Consider `CC(C)(CO)n1ncc(S(=O)(=O)Nc2ccc(Cl)c3c(C#N)c[nH]c23)c1Cl` [Compound 250, 5-chloro-N-(4-chloro-3-cyano-1H-indol-7-yl)-1-(2-hydroxy-1,1-dimethyl-ethyl)pyrazole-4-sulfonamide], for which the EC50 in data set [2] is under 250 nM. Moreover, the IC50 in data set [3] is under 250 nM.

For `CC(C)(CO)n1cc(S(=O)(=O)Nc2ccc(F)c3c(C#N)c[nH]c23)cn1` [Compound 224, N-(3-cyano-4-fluoro-1H-indol-7-yl)-1-(2-hydroxy-1,1-dimethyl-ethyl)pyrazole-4-sulfonamide], the EC50 in data set [2] fell in the range of 250 to 1000 nM. In addition, the IC50 in data set [3] was under 250 nM.

Consider `Cc1ccc(NS(=O)(=O)c2cnn(C(F)F)c2N)c2[nH]cc(C#N)c12` [Compound 284, 5-amino-N-(3-cyano-4-methyl-1H-indol-7-yl)-1-(difluoromethyl)pyrazole-4-sulfonamide], for which the EC50 in data set [2] is under 250 nM. The IC50 in data set [3] was under 250 nM.

Consider `CC(=O)N1CC(n2cc(S(=O)(=O)Nc3cccc4c(Cl)c[nH]c34)cn2)C1` [Compound 27, 1-(1-acetylazetidin-3-yl)-N-(3-chloro-1H-indol-7-yl)pyrazole-4-sulfonamide], for which the EC50 in data set [2] was over 1000 nM. Moreover, the concentration for half-maximal inhibition (IC50) in data set [3] is under 250 nM.

In the case of `CC(C)(N)Cn1cc(S(=O)(=O)Nc2ccc(Cl)c3c(C#N)c[nH]c23)cn1` [Compound 178, 1-(2-amino-2-methyl-propyl)-N-(4-chloro-3-cyano-1H-indol-7-yl)pyrazole-4-sulfonamide], in data set [2], the EC50 is over 1000 nM. Moreover, the IC50 in data set [3] is under 250 nM.

With `Cc1ccc(NS(=O)(=O)c2cnn(S(C)(=O)=O)c2)c2[nH]cc(C#N)c12` [Compound 93, N-(3-cyano-4-methyl-1H-indol-7-yl)-1-methylsulfonyl-pyrazole-4-sulfonamide], in data set [2], the EC50 fell in the range of 250 to 1000 nM. For the same compound, in data set [3], the IC50 is under 250 nM.

As to `N#Cc1c[nH]c2c(NS(=O)(=O)c3cnn(C(CO)(CO)CCl)c3)ccc(Cl)c12` [Compound 164, N-(4-chloro-3-cyano-1H-indol-7-yl)-1-[1-(chloromethyl)-2-hydroxy-1-(hydroxymethyl)ethyl]pyrazole-4-sulfonamide], the 50% effective concentration (EC50) in data set [2] was 250 to 1000 nM. The IC50 in data set [3] is under 250 nM.

In the case of `N#Cc1cc(C(F)(F)F)ccc1-n1cc(S(=O)(=O)Nc2cccc3c(Cl)c[nH]c23)cn1` [Compound 22, N-(3-chloro-1H-indol-7-yl)-1-[2-cyano-4-(trifluoromethyl)phenyl]pyrazole-4-sulfonamide], the EC50 in data set [2] is over 1000 nM. The IC50 in data set [3] was over 1000 nM.

Take `O=S(=O)(Nc1cccc2c(Cl)c[nH]c12)c1cnn(-c2ccccc2)c1` [Compound 37, N-(3-chloro-1H-indol-7-yl)-1-phenyl-pyrazole-4-sulfonamide]: the EC50 in data set [2] is over 1000 nM. Further, the IC50 in data set [3] is under 250 nM.

Regarding `CS(=O)(=O)Cn1cc(S(=O)(=O)Nc2ccc(Cl)c3c(Cl)c[nH]c23)cn1` [Compound 181, N-(3,4-dichloro-1H-indol-7-yl)-1-(methylsulfonylmethyl)pyrazole-4-sulfonamide], the EC50 in data set [2] is under 250 nM. In data set [3], the IC50 is under 250 nM.

Turning to `C[C@H](C(N)=O)n1cc(S(=O)(=O)Nc2ccc(Cl)c3c(C#N)c[nH]c23)cn1` [Compound 213, (2R)-2-[4-[(4-chloro-3-cyano-1H-indol-7-yl)sulfamoyl]pyrazol-1-yl]propanamide], the EC50 in data set [2] was 250 to 1000 nM. For the same compound, in data set [3], the 50% inhibitory concentration (IC50) was under 250 nM.
